# Measured values reported in patent US6451791B1, “Amidoaromatic ring sulfonamide hydroxamic acid compounds” (Monsanto Company, priority 1997, dated 2002).
# pIC50: −log10 of the molar value. Counter-ions that a name gives are not always drawn.
# Experiments:
# [1] = target: T1, hMMP-1 (Homo sapiens, UniProt P03956); experiment: In vitro metalloprotease inhibition, fluorogenic MCA peptide substrate; type: biochemical; conditions: recombinant human enzyme, APMA activated, room temperature, pH 7.5
# T1 construct: made in house; host or cells: transfected HT-1080 cells (provided by Dr. Howard Welgus, Washington University)
# T1 sequence (P03956 100-469): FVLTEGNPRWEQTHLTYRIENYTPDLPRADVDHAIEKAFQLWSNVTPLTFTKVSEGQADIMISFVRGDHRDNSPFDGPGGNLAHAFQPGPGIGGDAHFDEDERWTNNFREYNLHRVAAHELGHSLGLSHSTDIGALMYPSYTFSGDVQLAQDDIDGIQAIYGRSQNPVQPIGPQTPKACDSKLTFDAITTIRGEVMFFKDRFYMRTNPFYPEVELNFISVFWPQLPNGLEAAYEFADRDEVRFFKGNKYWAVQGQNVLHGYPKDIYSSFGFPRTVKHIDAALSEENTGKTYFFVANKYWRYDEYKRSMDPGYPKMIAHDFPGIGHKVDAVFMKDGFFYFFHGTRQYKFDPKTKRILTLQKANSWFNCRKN
# Procedure: (§1) The compounds prepared in the manner described in Examples 1 to 15 were assayed for activity by an in vitro assay. Following the procedures of Knight et al., FEBS Lett. 296(3):263 (1992). Briefly, 4-aminophenylmercuric acetate (APMA) or trypsin activated MMPs were incubated with various concentrations of the inhibitor compound at room temperature for 5 minutes.
# (§2) More specifically, recombinant human MMP-13 and MMP-1 enzymes were prepared in laboratories of the assignee. MMP-13 was expressed in baculovirus as a proenzyme, and purified first over a heparin agarose column and then over a chelating zinc chloride column. The proenzyme was activated by APMA for use in the assay. MMP-1 expressed in transfected HT-1080 cells was provided by Dr. Howard Welgus of Washington University, St. Louis, Mo. The enzyme was also activated using APMA and was then purified over a hydroxamic acid column.
# (§3) The enzyme substrate is a methoxycoumarin-containing polypeptide having the following sequence:
# (§4) MCA-ProLeuGlyLeuDpaAlaArgNH^2, wherein MCA is methoxycoumarin and Dpa is 3-(2,4-dinitrophenyl)-L-2,3-diaminopropionyl alanine. This substrate is commercially available from Baychem as product M-1895.
# (§5) The buffer used for assays contained 100 mM Tris-HCl, 100 mM NaCl, 10 mM CaCl2 and 0.05 percent polyethyleneglycol (23) lauryl ether at a pH value of 7.5. Assays were carried out at room temperature, and dimethyl sulfoxide (DMSO) at a final concentration of 1 percent was used to dissolve inhibitor compound.
# (§6) The assayed inhibitor compound in DMSO/buffer solution was compared to an equal amount of DMSO/buffer with no inhibitor as control using Microfluor™ White Plates (Dynatech). The inhibitor or control solution was maintained in the plate for 10 minutes and the substrate was added to provide a final concentration of 4 μM.
# (§7) In the absence of inhibitor activity, a fluorogenic peptide was cleaved at the gly-leu peptide bond, separating the highly fluorogenic peptide from a 2,4-dinitrophenyl quencher, resulting in an increase of fluorescence intensity (excitation at 328 nm/emission at 415 nm). Inhibition was measured as a reduction in fluorescent intensity as a function of inhibitor concentration, using a Perkin Elmer L550 plate reader. The IC50 values were calculated from those values. The results are set forth in the Inhibition Table below as Table 9, reported in terms of IC50.
# [2] = target: T2, hMMP-13 (Homo sapiens, UniProt P45452); experiment: as above; type: biochemical; conditions: recombinant human enzyme, APMA activated, room temperature, pH 7.5
# T2 construct: made in house
# Procedure: as §1, §2, §3, §4, §5, §6, §7
# [3] = target: T3, hMMP-2 (Homo sapiens, UniProt P08253); experiment: as above; type: biochemical; conditions: room temperature, pH 7.5
# T3 sequence (P08253 110-660): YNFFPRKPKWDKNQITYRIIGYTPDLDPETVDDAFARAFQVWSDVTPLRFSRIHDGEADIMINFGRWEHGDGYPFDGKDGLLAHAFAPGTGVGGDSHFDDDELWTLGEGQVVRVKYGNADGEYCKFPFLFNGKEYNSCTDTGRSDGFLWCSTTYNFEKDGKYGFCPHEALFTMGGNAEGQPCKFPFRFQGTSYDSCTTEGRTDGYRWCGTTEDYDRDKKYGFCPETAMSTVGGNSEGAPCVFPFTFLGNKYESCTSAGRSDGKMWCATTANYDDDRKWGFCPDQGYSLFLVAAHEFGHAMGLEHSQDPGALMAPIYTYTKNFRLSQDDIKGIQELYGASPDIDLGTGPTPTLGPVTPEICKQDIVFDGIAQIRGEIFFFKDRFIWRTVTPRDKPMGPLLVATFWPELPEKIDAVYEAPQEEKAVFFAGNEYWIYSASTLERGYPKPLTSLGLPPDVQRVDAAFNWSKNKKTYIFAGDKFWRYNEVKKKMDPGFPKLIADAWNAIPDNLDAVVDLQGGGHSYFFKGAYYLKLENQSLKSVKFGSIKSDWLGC
# Procedure: as §1, §3, §4, §5, §6, §7
# [4] = target: hMMP-3 (Homo sapiens, UniProt P08254); experiment: as above; type: biochemical; conditions: room temperature, pH 7.5
# Procedure: as §1, §3, §4, §5, §6, §7
# [5] = target: hMMP-8 (Homo sapiens, UniProt P22894); experiment: as above; type: biochemical; conditions: room temperature, pH 7.5
# Procedure: as §1, §3, §4, §5, §6, §7
# [6] = target: hMMP-9 (Homo sapiens, UniProt P14780); experiment: as above; type: biochemical; conditions: room temperature, pH 7.5
# Procedure: as §1, §3, §4, §5, §6, §7
# [7] = test system: advanced, rapidly progressive, treatment-refractory solid tumor cancers; conditions: cited from earlier work
# Sequence of hMMP-3 (P08254 100-477): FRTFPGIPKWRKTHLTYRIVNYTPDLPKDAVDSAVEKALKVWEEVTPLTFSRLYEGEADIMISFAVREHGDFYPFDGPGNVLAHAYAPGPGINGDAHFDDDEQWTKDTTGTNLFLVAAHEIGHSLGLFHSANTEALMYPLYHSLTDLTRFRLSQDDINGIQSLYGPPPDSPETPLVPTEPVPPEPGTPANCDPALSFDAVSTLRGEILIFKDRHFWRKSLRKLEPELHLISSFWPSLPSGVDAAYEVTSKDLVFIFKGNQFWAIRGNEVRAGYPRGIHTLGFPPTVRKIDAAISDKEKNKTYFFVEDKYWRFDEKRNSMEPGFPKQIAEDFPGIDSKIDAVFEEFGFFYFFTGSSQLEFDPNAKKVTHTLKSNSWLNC
# Sequence of hMMP-9 (P14780 107-707 limits assumed): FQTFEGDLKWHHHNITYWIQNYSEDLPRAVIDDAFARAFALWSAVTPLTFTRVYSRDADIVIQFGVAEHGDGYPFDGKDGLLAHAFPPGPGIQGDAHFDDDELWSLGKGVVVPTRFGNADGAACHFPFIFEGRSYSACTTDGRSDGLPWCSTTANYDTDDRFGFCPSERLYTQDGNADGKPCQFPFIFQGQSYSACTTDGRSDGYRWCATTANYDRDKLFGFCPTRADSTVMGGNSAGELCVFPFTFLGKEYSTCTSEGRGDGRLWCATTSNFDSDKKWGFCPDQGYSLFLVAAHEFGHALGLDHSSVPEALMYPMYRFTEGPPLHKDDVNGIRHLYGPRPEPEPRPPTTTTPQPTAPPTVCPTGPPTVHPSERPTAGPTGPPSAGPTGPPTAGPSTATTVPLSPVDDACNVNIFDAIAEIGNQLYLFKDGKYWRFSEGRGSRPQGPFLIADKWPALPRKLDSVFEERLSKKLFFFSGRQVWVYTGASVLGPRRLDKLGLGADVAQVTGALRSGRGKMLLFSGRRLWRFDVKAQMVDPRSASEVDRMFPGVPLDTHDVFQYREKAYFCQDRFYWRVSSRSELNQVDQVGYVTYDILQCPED
# Sequence of hMMP-8 (P22894 101-467): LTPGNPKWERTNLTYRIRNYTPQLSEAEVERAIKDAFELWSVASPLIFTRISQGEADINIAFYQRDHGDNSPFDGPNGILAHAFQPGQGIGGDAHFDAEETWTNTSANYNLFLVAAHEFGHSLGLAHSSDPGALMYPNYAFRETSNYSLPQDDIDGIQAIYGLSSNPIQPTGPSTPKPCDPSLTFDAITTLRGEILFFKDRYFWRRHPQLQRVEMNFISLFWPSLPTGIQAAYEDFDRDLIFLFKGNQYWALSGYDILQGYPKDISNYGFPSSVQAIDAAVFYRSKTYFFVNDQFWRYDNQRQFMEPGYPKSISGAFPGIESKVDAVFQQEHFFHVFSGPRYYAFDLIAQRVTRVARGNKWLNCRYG
pIC50 [1],pIC50 [2],pIC50 [3],pIC50 [4],pIC50 [5],pIC50 [6],Compound,most common drug-related toxicity ([7]; clinical trials in patients),"effect on cancer-specific antigens used as surrogate markers for biological activity ([7]; patients with colorectal, pancreatic, ovarian, prostate cancers)"
< 5.00,> 10.00,> 10.00,7.52,7.47,6.79,CCCCCc1ccc(C(=O)Nc2ccc(S(=O)(=O)N[C@H](Cc3ccccc3)C(=O)NO)cc2)cc1 [Example 14],–,–
5.31,9.46,–,–,–,–,C[C@H](C(=O)NO)N(CCN1CCOCC1)S(=O)(=O)c1ccc(NC(=O)c2ccc(Br)cc2)cc1 [Example 5],–,–
5.40,9.52,–,7.05,8.05,8.35,CCCc1ccc(C(=O)Nc2ccc(S(=O)(=O)N(CCN3CCOCC3)[C@@H](C(=O)NO)C(C)C)cc2)cc1 [Example 7],–,–
< 5.00,6.60,–,–,–,5.46,C[C@H](C(=O)NO)N(CCN1CCOCC1)S(=O)(=O)c1ccc(NC(=O)C2CCCCC2)cc1 [Example 6],–,–
5.25,> 10.00,–,–,–,6.46,CCCCCCc1ccc(C(=O)Nc2ccc(S(=O)(=O)N(CCN3CCOCC3)[C@@H](C(=O)NO)C(C)C)cc2)cc1 [Example 10],–,–
6.06,9.40,–,–,–,8.72,CC(C)[C@H](C(=O)NO)N(CCN1CCOCC1)S(=O)(=O)c1ccc(NC(=O)c2ccc(Br)cc2)cc1 [Example 13],–,–
–,8.66,–,–,–,7.62,"C[C@H](C(=O)NO)N(CCN1CCOCC1)S(=O)(=O)c1ccc(NC(=O)c2ccccc2)cc1 [Example 4a, (R)-N-[4-[[[2-(Hydroxyamino)-1-methyl-2-oxoethyl][2-4-morpholinyl)ethyl]amino]sulfonyl]phenyl]benzamide, Monohydrochloride]",–,–
< 5.00,8.60,–,–,–,7.70,C[C@H](C(=O)NO)N(CCN1CCOCC1)S(=O)(=O)c1ccc(NC(=O)c2ccccc2)cc1 [Example 4],–,–
< 5.00,> 10.00,> 10.00,6.85,6.62,6.54,CCCCCc1ccc(C(=O)Nc2ccc(S(=O)(=O)N(CCN3CCOCC3)[C@H](Cc3ccccc3)C(=O)NO)cc2)cc1 [Example 15],–,–
–,–,> 10.00,6.74,8.59,–,"CCCCCCc1ccc(C(=O)Nc2ccc(S(=O)(=O)N(CCN3CCOCC3)[C@@H](C(=O)NO)C(C)C)cc2)cc1 [Example 10a, (R)-4-Hexyl-N-[4-[[[1-(hydroxyamino)-carbonyl]-2-methylpropyl][2-(4-morpholinyl)ethyl]amino]sulfonyl]phenylbenzamide]",–,–
–,–,–,–,–,–,CNC(=O)[C@@H](NC(=O)[C@H](CC(C)C)[C@H](O)C(=O)NO)C(C)(C)C [marimastat],musculoskeletal pain and stiffness,dose-related reduction in the rise of cancer-specific antigens
< 5.00,9.30,10.00,6.65,7.41,7.62,CCCc1ccc(C(=O)Nc2ccc(S(=O)(=O)N(Cc3cccnc3)[C@@H](C(=O)NO)C(C)C)cc2)cc1 [Example 11],–,–
5.40,> 10.00,> 10.00,7.26,8.10,6.70,CCCCCc1ccc(C(=O)Nc2ccc(S(=O)(=O)N(CCN3CCOCC3)[C@@H](C(=O)NO)C(C)C)cc2)cc1 [Example 9],–,–
5.47,7.94,–,6.10,7.91,6.61,CC(C)[C@H](C(=O)NO)N(CCN1CCOCC1)S(=O)(=O)c1ccc(NC(=O)c2ccccc2)cc1 [Example 12],–,–
5.40,10.00,–,7.30,7.59,7.51,CCCCc1ccc(C(=O)Nc2ccc(S(=O)(=O)N(CCN3CCOCC3)[C@@H](C(=O)NO)C(C)C)cc2)cc1 [Example 8],–,–
